# Measured values published in patent US9006194B2, “Compositions and methods for diminishing viral infection and inflammation associated with viral infection” (Drexel University, priority 2008, dated 2015).
# Tested on: CD4+ and CD8+ T cells
# Test: Apoptosis assay of primary human CD4+ and CD8+ T lymphocytes exposed to Type 1 interferon (CD95/Fas-induced, Annexin V)
# Details: 5 ng/mL for 72 hours, resting or anti-CD3 activated T cells, n=5 healthy donors
# Experimental: T cells were activated with anti-CD3 antibody. n=5 healthy donors for each group.
# Primary human PBMC were isolated were isolated by density centrifugation using Ficoll from heparinized venous blood of HIV-1-seronegative adult donors and seeded into 24-well plates at a concentration of 1×10^6 cells/mL/well. Freshly isolated PBMC were treated with 5 ng/mL recombinant IFN-α (PBL Interferon Source; Piscataway, N.J.) in the presence or absence of monoclonal anti-CD3 antibody (OKT3). Anti-CD3 was immobilized by coating plates with 0.1 μg/mL in PBS for 2 hours. Following a 3 day incubation period, PBMC were harvested and transferred to 24-well plates that were uncoated or coated with 5 μg/mL monoclonal anti-CD95 antibody (IgM, CH11; Immunotech, Brea, Calif.) for 14 hour at 37° C. in 5% CO2. Cells were subsequently harvested, counted and stained for flow cytometry analysis. The following combinations of mAb were used to identify CD4+ and CD8+ T cell subpopulations: anti-CD3-PE/anti-CD4-APC/anti-CD8-PerCP; and for the apoptosis studies: Annexin V-Cy5.5 (eBioscience, San Diego, Calif.). One million cells were stained as previously described (Mueller Y M et al., 2001, Immunity. 15:871-882) with the combination of antibodies in HBSS (Cellgro, Herndon, Va.), 3% FBS, 0.02% NaN3 for 15 min on ice, washed twice with HBSS, 3% FBS, 0.02% NaN3 and fixed with 1% paraformaldehyde. […]
substance,measurement,value
IFN-α,CD95/Fas-induced apoptosis of T cells (in words),increase
